Laboratory results from US4113946A, “Δ^2,3 -1,4-Morpholine-2-carboxylic acid derivatives as antibacterial agents” (Bristol-Myers Company, priority 1977, dated 1978).
In brackets after ≈: the same amount, converted by molar mass. Read-outs that look alike come from different tables or passages of the source.

Tests used:
Format in all cases: cell-based
D. pneumoniae A9585 = assay: M.I.C. by tube dilution, D. pneumoniae A9585; conditions: for MIC: Streptococcus pneumoniae, A9585
Sal. enteritidis A9531 = assay: M.I.C. by tube dilution, Sal. enteritidis A9531; conditions: for MIC: Salmonella enterica, ENTERITIDIS
E. coli Juhl A15119 = assay: M.I.C. by tube dilution, E. coli Juhl A15119; conditions: for MIC: Escherichia coli, JUHLA15119
S. aureus Smith A9537 = assay: M.I.C. by tube dilution, S. aureus Smith A9537; conditions: for MIC: Staphylococcus aureus
[1] = system: S. aureus meth.-resist; A15097; assay: M.I.C. by tube dilution, S. aureus meth.-resist A15097; conditions: Staphylococcus aureus, at 10^-3 dil'n, overnight 37° C.
Ser. marcescens A20019 = assay: M.I.C. by tube dilution, Ser. marcescens A20019; conditions: Serratia marcescens
K. pneumoniae A9977 = assay: M.I.C. by tube dilution, K. pneumoniae A9977; conditions: Klebsiella pneumoniae
K. pneumoniae A15130 = assay: M.I.C. by tube dilution, K. pneumoniae A15130; conditions: Klebsiella pneumoniae
S. aureus BX1633-2 A9606 = assay: M.I.C. by tube dilution, S. aureus BX1633-2 A9606; conditions: Staphylococcus aureus, overnight 37° C.
Pr. morganii A15153 = assay: M.I.C. by tube dilution, Pr. morganii A15153; conditions: Morganella morganii
E. coli A9675 = assay: M.I.C. by tube dilution, E. coli A9675; conditions: Escherichia coli
Str. pyogenes A9604 = assay: M.I.C. by tube dilution, Str. pyogenes A9604; conditions: Streptococcus pyogenes
Ps. aeruginosa A9843A = assay: microbe, parasite or virus in culture; conditions: Pseudomonas aeruginosa
Pr. mirabilis A9900 = assay: M.I.C. by tube dilution, Pr. mirabilis A9900; conditions: Proteus mirabilis
[2] = Table 9, compound of Ex. No., serum not given, read-out: M.I.C. D. pneumoniae A9585
[3] = Table 9, compound of Ex. No., dilution not given, read-out: M.I.C. Sal. enteritidis A9531
[4] = Table 9, compound of Ex. No., dilution not given, read-out: M.I.C. E. coli A15119
[5] = SMITHA9537, Table 9, compound of Ex. No., serum and dilution not given, read-out: M.I.C. S. aureus A9537
[6] = at 10^-4 dilution, overnight 37° C., read-out: M.I.C.
[7] = Table 9, compound of Ex. No., dilution not given
[8] = +5% serum, 50% Nutrient Broth - 45% Antibiotic Assay Broth, overnight 37° C., read-out: M.I.C.

CC1=C(C(=O)O)N2C(=O)[C@@H](NC(=O)CC#N)[C@H]2CO1 (relative stereo) [Example 36, 7β-[Cyanoacetamido]-3-methyl-Δ^3-0-2-isocephem-4-carboxylicacid]
MIC (D. pneumoniae A9585; [2]): 0.5 µg/mL (≈ 1.89 µM) | MIC (Sal. enteritidis A9531; [3]): 125 µg/mL (≈ 471 µM) | MIC (E. coli Juhl A15119; [4]): 125 µg/mL (≈ 471 µM) | MIC (S. aureus Smith A9537; [5]): 4 µg/mL (≈ 15.1 µM)

CC1=C(C(=O)O)N2C(=O)[C@@H](NC(=O)C(NC(=O)NC(=O)c3ccccc3)c3ccccc3)[C@H]2CO1 (stereo partly drawn) [Example 25, 7β-(α-Benzoylureidophenylacetamido)-3-methyl-Δ^3 -O-2-isocephem-4-carboxylic acid]
MIC (D. pneumoniae A9585; [2]): 0.3 µg/mL (≈ 0.627 µM) | MIC (Sal. enteritidis A9531; [3]): 8 µg/mL (≈ 16.7 µM) | MIC (E. coli Juhl A15119; [4]): 63 µg/mL (≈ 132 µM) | MIC (S. aureus Smith A9537; [5]): 0.6 µg/mL (≈ 1.25 µM)

CC1=C(C(=O)O)N2C(=O)[C@@H](NC(=O)Cc3ccccc3)[C@H]2CO1 (relative stereo) [Example 32, 7β-Phenylacetamido-3-methyl-Δ^3-0-2-isocephem-4-carboxylic acid]
MIC (D. pneumoniae A9585; [2]): 0.5 µg/mL (≈ 1.58 µM) | MIC (Sal. enteritidis A9531; [3]): 4 µg/mL (≈ 12.6 µM) | MIC (E. coli Juhl A15119; [4]): 125 µg/mL (≈ 395 µM) | MIC (S. aureus Smith A9537; [5]): 1 µg/mL (≈ 3.16 µM)

N[C@@H](C(=O)N[C@@H]1C(=O)N2C(C(=O)O)=COC[C@H]12)c1ccccc1 [BC-L6, 7β-(D-α-aminophenylacetamido)-Δ^3 -O-2-isocephem-4-carboxylic acid]
MIC (D. pneumoniae A9585): 16 µg/mL (≈ 50.4 µM) | MIC (Sal. enteritidis A9531): 32 µg/mL (≈ 101 µM) | MIC ([1]; read-out: M.I.C.): > 500 µg/mL | MIC (E. coli Juhl A15119): 125 µg/mL (≈ 394 µM) | MIC (Ser. marcescens A20019; [6]): > 500 µg/mL | MIC (K. pneumoniae A9977; [6]): 63 µg/mL (≈ 199 µM) | MIC (K. pneumoniae A15130): 125 µg/mL (≈ 394 µM) | MIC (S. aureus Smith A9537; SMITHA9537, +50% serum, at 10^-4 dilution, overnight 37° C., read-out: M.I.C.): 250 µg/mL (≈ 788 µM) | MIC (S. aureus Smith A9537; SMITHA9537, at 10^-4 dilution, overnight 37° C.): 32 µg/mL (≈ 101 µM) | MIC (S. aureus BX1633-2 A9606; BX16332A9606, at 10^-2 dil'n, read-out: M.I.C.): 500 µg/mL (≈ 1580 µM) | MIC (S. aureus BX1633-2 A9606; BX16332A9606, at 10^-3 dil'n): 125 µg/mL (≈ 394 µM) | MIC (Pr. morganii A15153; [6]): > 500 µg/mL | MIC (E. coli A9675; [6]): 250 µg/mL (≈ 788 µM) | MIC (Str. pyogenes A9604): 16 µg/mL (≈ 50.4 µM) | MIC (Ps. aeruginosa A9843A): > 500 µg/mL | MIC (Pr. mirabilis A9900): 125 µg/mL (≈ 394 µM)

CC1=C(C(=O)O)N2C(=O)[C@@H](NC(=O)Cc3ccccc3CN)[C@H]2CO1 (relative stereo) [Example 24, 7β-(2-Aminomethylphenylacetamido)-3-methyl-Δ^3 -O-2-isocephem-4-carboxylic acid]
MIC (D. pneumoniae A9585; [2]): 0.08 µg/mL (≈ 0.232 µM) | MIC (Sal. enteritidis A9531; [3]): > 2.5 µg/mL | MIC (E. coli Juhl A15119; [4]): 16 µg/mL (≈ 46.3 µM) | MIC (S. aureus Smith A9537; [5]): 0.6 µg/mL (≈ 1.74 µM)

CC1=C(C(=O)O)N2C(=O)[C@@H](NC(=O)NCOc3ccccc3)[C@H]2CO1 (relative stereo) [Example 31]
MIC (D. pneumoniae A9585; [2]): 16 µg/mL (≈ 46.1 µM) | MIC (Sal. enteritidis A9531; [3]): > 125 µg/mL | MIC (E. coli Juhl A15119; [4]): > 125 µg/mL | MIC (S. aureus Smith A9537; [5]): 32 µg/mL (≈ 92.1 µM)

CCOC(=O)NC1C(=O)N2C(C(=O)O)=C(C)OCC12 (stereo not drawn) [Example 38, 7β-(Ethoxycarboxamido)-3-methyl-Δ^3-0-2-isocephem-4-carboxylic acid]
MIC (D. pneumoniae A9585; [2]): 32 µg/mL (≈ 118 µM) | MIC (Sal. enteritidis A9531; [3]): > 125 µg/mL | MIC (E. coli Juhl A15119; [4]): > 125 µg/mL | MIC (S. aureus Smith A9537; [5]): 125 µg/mL (≈ 463 µM)

CC1=C(C(=O)O)N2C(=O)[C@@H](NC(=O)[C@H](O)c3ccccc3)[C@H]2CO1 [Example 27, 7β-(D-α-Hydroxyphenylacetamido)-3-methyl-Δ^3 -O-2-isocephem-4-carboxylic acid]
MIC (D. pneumoniae A9585; [2]): 1 µg/mL (≈ 3.01 µM) | MIC (Sal. enteritidis A9531; [3]): 8 µg/mL (≈ 24.1 µM) | MIC (E. coli Juhl A15119; [4]): 16 µg/mL (≈ 48.1 µM) | MIC (S. aureus Smith A9537; [5]): 2 µg/mL (≈ 6.02 µM)

CC1=C(C(=O)O)N2C(=O)[C@@H](NC(=O)CNC(=N)Cc3ccccc3)[C@H]2CO1 (relative stereo) [Example 28, 7β-[N-(Phenylacetimidoyl)aminoacetamido]-3-methyl-Δ^3 -O-2-isocephem-4-carboxylic acid]
MIC (D. pneumoniae A9585; [2]): 0.5 µg/mL (≈ 1.34 µM) | MIC (Sal. enteritidis A9531; [3]): 125 µg/mL (≈ 336 µM) | MIC (E. coli Juhl A15119; [4]): > 125 µg/mL | MIC (S. aureus Smith A9537; [5]): 4 µg/mL (≈ 10.7 µM)

CC1=C(C(=O)O)N2C(=O)C(NC(=O)Cn3ncnn3)C2CO1 (stereo not drawn) [Example 37, 7β-[2-(2H)-tetrazolylacetamido]-3-methyl-Δ^3-0-2-isocephem-4-carboxylic acid]
M.I.C. D. pneumoniae A9585 (D. pneumoniae A9585; Table 9, compound of Ex. No., serum not given): 125 µg/mL | M.I.C. Sal. enteritidis A9531 (Sal. enteritidis A9531; [7]): > 125 µg/mL | M.I.C. E. coli A15119 (E. coli Juhl A15119; [7]): > 125 µg/mL | M.I.C. S. aureus A9537 (S. aureus Smith A9537; Table 9, compound of Ex. No., serum and dilution not given): > 125 µg/mL

COc1cccc(OC)c1C(=O)N[C@@H]1C(=O)N2C(C(=O)O)=C(C)OC[C@H]12 (relative stereo) [Example 26, 7β-(2,6-Dimethoxybenzamido)-3-methyl-Δ^3 -O-2-isocephem-4-carboxylic acid]
MIC (D. pneumoniae A9585; [2]): 32 µg/mL (≈ 88.3 µM) | MIC (Sal. enteritidis A9531; [3]): 32 µg/mL (≈ 88.3 µM) | MIC (E. coli Juhl A15119; [4]): > 125 µg/mL | MIC (S. aureus Smith A9537; [5]): > 125 µg/mL

CCCCC(=O)NC1C(=O)N2C(C(=O)O)=C(C)OCC12 (stereo not drawn) [Example 29, 7β-Valeramido-3-methyl-Δ^3 -O-2-isocephem-4-carboxylic acid]
MIC (D. pneumoniae A9585; [2]): 125 µg/mL (≈ 443 µM) | MIC (Sal. enteritidis A9531; [3]): > 125 µg/mL | MIC (E. coli Juhl A15119; [4]): > 125 µg/mL | MIC (S. aureus Smith A9537; [5]): 125 µg/mL (≈ 443 µM)

CC1=C(C(=O)O)N2C(=O)[C@@H](NC(=O)Cc3cccs3)[C@H]2CO1 (relative stereo) [Example 33, 7β-(2-Thienylacetamido)-3-methyl-Δ^3-0-2-isocephem-4-carboxylic acid]
MIC (D. pneumoniae A9585; [2]): 0.25 µg/mL (≈ 0.776 µM) | MIC (Sal. enteritidis A9531; [3]): 2 µg/mL (≈ 6.2 µM) | MIC (E. coli Juhl A15119; [4]): 32 µg/mL (≈ 99.3 µM) | MIC (S. aureus Smith A9537; [5]): 1 µg/mL (≈ 3.1 µM)

CC1=C(C(=O)O)N2C(=O)[C@@H](NC(=O)c3c(-c4ccccc4Cl)noc3C)[C@H]2CO1 (relative stereo) [Example 39, 7β-[3-(o-chlorophenyl)-5-methyl-isoxazol-4-ylcarboxamido]-3-methyl-Δ^3-0-2-isocephem-4-carboxylic acid]
MIC (D. pneumoniae A9585; [2]): 8 µg/mL (≈ 19.1 µM) | MIC (Sal. enteritidis A9531; [3]): > 125 µg/mL | MIC (E. coli Juhl A15119; [4]): > 125 µg/mL | MIC (S. aureus Smith A9537; [5]): > 8 µg/mL

O=C(COc1ccccc1)N[C@@H]1C(=O)N2C(C(=O)O)=COC[C@H]12 (relative stereo) [BC-L2, potassium 7 β-phenoxyacetamido-Δ^3 -O-2-isocephem-4-carboxylate]
MIC (D. pneumoniae A9585; [8]): 0.6 µg/mL | MIC (Sal. enteritidis A9531): 16 µg/mL | MIC [1]: > 125 µg/mL | MIC (E. coli Juhl A15119; [6]): 63 µg/mL | MIC (Ser. marcescens A20019): > 125 µg/mL | MIC (K. pneumoniae A9977): 32 µg/mL | MIC (K. pneumoniae A15130): > 125 µg/mL | MIC (S. aureus Smith A9537; SMITHA9537, +50% serum, at 10^-4 dilution, overnight 37° C.): 1 µg/mL | MIC (S. aureus Smith A9537; SMITHA9537, at 10^-4 dilution, overnight 37° C., read-out: M.I.C.): 1.3 µg/mL | MIC (S. aureus BX1633-2 A9606; BX16332A9606, at 10^-2 dil'n): > 125 µg/mL | MIC (S. aureus BX1633-2 A9606; BX16332A9606, at 10^-3 dil'n, read-out: M.I.C.): 2.5 µg/mL | MIC (Pr. morganii A15153): > 125 µg/mL | MIC (E. coli A9675): > 125 µg/mL | MIC (Str. pyogenes A9604; [8]): 0.6 µg/mL | MIC (Ps. aeruginosa A9843A): > 125 µg/mL | MIC (Pr. mirabilis A9900; [6]): 63 µg/mL

CC1=C(C(=O)O)N2C(=O)[C@@H](NC(=O)C(C(=O)O)c3ccccc3)[C@H]2CO1 (stereo partly drawn) [Example 34, 7β-[α-carboxy-α-phenylacetamido]-3-methyl-Δ^3-0-2-isocephem-4-carboxylic acid]
MIC (D. pneumoniae A9585; [2]): 4 µg/mL (≈ 11.1 µM) | MIC (Sal. enteritidis A9531; [3]): 32 µg/mL (≈ 88.8 µM) | MIC (E. coli Juhl A15119; [4]): 125 µg/mL (≈ 347 µM) | MIC (S. aureus Smith A9537; [5]): 16 µg/mL (≈ 44.4 µM)

CC1=C(C(=O)O)N2C(=O)[C@@H](NC(=O)Cc3ccccc3O)[C@H]2CO1 (relative stereo) [Example 35, 7β-(o-Hydroxyphenylacetamido)-3-methyl-Δ^3-0-2-isocephem-4-carboxylic acid]
MIC (D. pneumoniae A9585; [2]): 0.25 µg/mL (≈ 0.752 µM) | MIC (Sal. enteritidis A9531; [3]): > 125 µg/mL | MIC (E. coli Juhl A15119; [4]): > 125 µg/mL | MIC (S. aureus Smith A9537; [5]): 0.5 µg/mL (≈ 1.5 µM)
